Reference: US11731955B2, “Crystal habit of quinoline derivative and preparation method for crystalline powder thereof” (CHIA TAI TIANQING PHARMACEUTICAL GROUP CO., LTD, priority 2018, dated 2023)
Structures can show the parent of a compound that is named as a salt.

What was measured:
Assay type in all cases: physicochemical
[1] = Specific surface area by multipoint BET measurement; details: for A (specific surface area): pulverized powders, dihydrochloride
Procedure: In the present application, the specific surface area A used herein refers to the total area per unit mass (m^2/g), as determined by multipoint BET specific surface area measurement.
The specific surface area was determined by multipoint BET specific surface area measurement, in which the absolute adsorption quantity of nitrogen in a sample was measured under different partial pressures, and the single-layer adsorption quantity was calculated by the BET theory, thus giving the specific surface area.

[2] = Determination of solubility (saturation concentration); details: for solubility thermodynamic at 24 h: aqueous buffer, thermodynamic from solid, shaker at 37° C.
Procedure: 14.16 mg of the crystalline powder of the compound of the formula II acquired in Example 1 was dissolved, shaken overnight (24 hours) on a shaker at 37° C. and cooled to room temperature. The saturation concentration was measured using the supernatant. As a result, the saturation concentrations in the phosphoric acid solutions at pH 6.8 and 7.0 for 24 hours were 0.8 and 0.3 μg/mL, respectively.

[3] = Particle-size distribution by laser particle size analyzer; details: laser particle-size distribution of pulverized powders; dihydrochloride
Excerpt: “X10” as used herein refers to the particle size for 10% of the particles in the particle size distribution, i.e., the fraction of particles smaller than this particle size accounts for 10% of all particles; “X50” refers to the particle size for 50% of the particles in the particle size distribution, i.e., the fraction of particles smaller than this particle size accounts for 50% of all particles; “X90” refers to a particle size for 90% of the particles in the particle size distribution, i.e., the fraction of particles smaller than this particle size accounts for 90% of all particles.
The particle-size distribution of the materials was determined by laser. Instrument: fully automatic dry and wet two-in-one laser particle size analyzer, VIBRI (HELOSBR).

[4] = Dissolution properties of powders by basket method; details: 100 rpm, dihydrochloride; for Cumulative dissolution % (0.1 mol/L hydrochloric acid): 1000 mL
Procedure: The dissolution properties of powders 1 and 2 in 1000 mL of 0.1 mol/L aqueous hydrochloric acid solution and a standard medium of 10 mM phosphate buffer containing 0.075% SDS, pH 6.8 were measured by basket method at 100 rpm and compared.

| SMILES | specific surface area ([1]; bulk crystal recrystallized in ethanol (Comparative Example 1)) [m^2/g] | Biopharmaceutical Classification System (BCS) solubility classification [2] | solubility thermodynamic at 24 h ([2]; phosphoric acid solution pH 6.8, 24 hours) [µg/mL] | solubility thermodynamic at 24 h ([2]; phosphoric acid solution pH 7.0, 24 hours) [µg/mL] | X50 [3] [μm] | X90 [3] [μm] | A (specific surface area) [1] [m^2/g] | Cumulative dissolution % (10 mM phosphate buffer containing 0.075% SDS, pH 6.8) ([4]; 3 min) [%] | Cumulative dissolution % (0.1 mol/L hydrochloric acid) ([4]; 3 min) [%] | Cumulative dissolution % (10 mM phosphate buffer containing 0.075% SDS, pH 6.8) ([4]; 5 min) [%] | Cumulative dissolution % (0.1 mol/L hydrochloric acid) ([4]; 5 min) [%] |
| --- | --- | --- | --- | --- | --- | --- | --- | --- | --- | --- | --- |
| COc1cc2c(Oc3ccc4[nH]c(C)cc4c3F)ccnc2cc1OCC1(N)CC1 [Anlotinib dihydrochloride, reference compound] | 3.4750 |  |  |  |  |  |  |  |  |  |  |
| COc1cc2c(Oc3ccc4[nH]c(C)cc4c3F)ccnc2cc1OCC1(N)CC1 [Example 1, Anlotinib dihydrochloride] |  | low solubility | 0.8 | 0.3 |  |  |  |  |  |  |  |
| COc1cc2c(Oc3ccc4[nH]c(C)cc4c3F)ccnc2cc1OCC1(N)CC1 [Powder 1, Anlotinib dihydrochloride] |  |  |  |  | 3.96 | 64.89 | 11.09 ± 0.04 | 77.4 | 89.6 | 90.2 | 94.2 |
| COc1cc2c(Oc3ccc4[nH]c(C)cc4c3F)ccnc2cc1OCC1(N)CC1 [Powder 2, Anlotinib dihydrochloride] |  |  |  |  | 2.66 | 14.01 | 13.07 ± 0.05 | 80.1 | 93.7 | 86.4 | 95.8 |
